# ChEMBL document CHEMBL1201862, “PubChem BioAssay data set” (2004)
#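 A five-concentration, 48-hour dose response in 96-well plates underlies each endpoint, interpolated linearly between surrounding concentrations. At the GI50, growth is halved.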 The source made the active and inactive calls. Rule as the data show it: active = GI50 up to about 1.1 µM and inactive = higher.
# How the values were obtained:
# Test in all cases: inhibition of tumour cell growth, NCI panel, 48 h
# [1] = tested on: MCF7
# [2] = tested on: KM12
# [3] = tested on: CCRF-CEM
# [4] = tested on: DU-145
# [5] = tested on: SF-295
# [6] = tested on: HCC 2998
# [7] = tested on: NCI-H23
# [8] = tested on: UACC-257
# [9] = tested on: Malme-3M
# [10] = tested on: OVCAR-3
# [11] = tested on: NCI-H460
# [12] = tested on: SF-539
# [13] = tested on: HOP-92
# [14] = tested on: OVCAR-4
# [15] = tested on: MDA-N
# [16] = tested on: CAKI-1
# [17] = tested on: SK-MEL-5
Compound,GI50 [1],GI50 [2],GI50 [3],GI50 [4],GI50 [5],GI50 [6],GI50 [7],GI50 [8],GI50 [9],GI50 [10],GI50 [11],GI50 [12],GI50 [13],GI50 [14],GI50 [15],GI50 [16],GI50 [17]
Cc1cccc2nc3n(c12)C(=O)c1ccccc1-3,> 100 µM (inactive),> 100 µM (inactive),> 100 µM (inactive),44.4 µM (inactive),49.9 µM (inactive),> 100 µM (inactive),> 100 µM (inactive),> 100 µM (inactive),> 100 µM (inactive),> 100 µM (inactive),> 100 µM (inactive),> 100 µM (inactive),> 100 µM (inactive),> 100 µM (inactive),43.2 µM (inactive),> 100 µM (inactive),
COc1ccc(S(=O)(=O)NNS(C)(=O)=O)cc1OC,,> 100 µM (inactive),> 100 µM (inactive),,> 100 µM (inactive),> 100 µM (inactive),> 100 µM (inactive),> 100 µM (inactive),> 100 µM (inactive),,> 100 µM (inactive),> 100 µM (inactive),,> 100 µM (inactive),,> 100 µM (inactive),> 100 µM (inactive)
OC1=CN=COc2ccccc21,,> 100 µM (inactive),> 100 µM (inactive),,> 100 µM (inactive),> 100 µM (inactive),> 100 µM (inactive),> 100 µM (inactive),> 100 µM (inactive),> 100 µM (inactive),> 100 µM (inactive),> 100 µM (inactive),> 100 µM (inactive),> 100 µM (inactive),,,
CCCCCCCCCCCCCP(=O)(NCC(N)=O)OCC (stereo unspecified),,18.4 µM (inactive),22.6 µM (inactive),,17.3 µM (inactive),20.2 µM (inactive),24.3 µM (inactive),18.9 µM (inactive),17.7 µM (inactive),15.3 µM (inactive),20.6 µM (inactive),17.4 µM (inactive),17 µM (inactive),16.7 µM (inactive),,,18.5 µM (inactive)
CC(=O)CC(=O)NC=O,,> 100 µM (inactive),> 100 µM (inactive),,> 100 µM (inactive),> 100 µM (inactive),> 100 µM (inactive),> 100 µM (inactive),> 100 µM (inactive),> 100 µM (inactive),> 100 µM (inactive),> 100 µM (inactive),> 100 µM (inactive),> 100 µM (inactive),,> 100 µM (inactive),> 100 µM (inactive)
O=C(Cc1ccccc1)NS(=O)(=O)c1ccccc1,,> 100 µM (inactive),> 100 µM (inactive),,> 100 µM (inactive),> 100 µM (inactive),> 100 µM (inactive),> 100 µM (inactive),> 100 µM (inactive),> 100 µM (inactive),> 100 µM (inactive),> 100 µM (inactive),> 100 µM (inactive),> 100 µM (inactive),,> 100 µM (inactive),
CC[C@@H]1OC2(C)CC(S(=O)(=O)c3ccccc3)CC1O2 (stereo partly specified),,> 100 µM (inactive),> 100 µM (inactive),,> 100 µM (inactive),> 100 µM (inactive),> 100 µM (inactive),> 100 µM (inactive),> 100 µM (inactive),> 100 µM (inactive),> 100 µM (inactive),> 100 µM (inactive),> 100 µM (inactive),> 100 µM (inactive),,< 0.01 µM (active),> 100 µM (inactive)
CC(=O)C1CC2(c3ccccc3)C(=O)c3ccccc3N2O1 (stereo unspecified),,,> 100 µM (inactive),,> 100 µM (inactive),> 100 µM (inactive),> 100 µM (inactive),> 100 µM (inactive),> 100 µM (inactive),,,> 100 µM (inactive),> 100 µM (inactive),> 100 µM (inactive),,,> 100 µM (inactive)
COCC(C)(C)/N=C/N1Cc2cc3ccccc3nc2C1,,> 100 µM (inactive),> 100 µM (inactive),,> 100 µM (inactive),,> 100 µM (inactive),> 100 µM (inactive),> 100 µM (inactive),75.5 µM (inactive),> 100 µM (inactive),> 100 µM (inactive),> 100 µM (inactive),> 100 µM (inactive),,> 100 µM (inactive),> 100 µM (inactive)
COC1=C(C(=O)OC(C)(C)C)[C@]2(C)C(C(=O)OC(C)(C)C)C(OC)=C(C(=O)OC(C)(C)C)[C@]2(C)C1C(=O)OC(C)(C)C (stereo partly specified),,79.1 µM (inactive),73.8 µM (inactive),,83.4 µM (inactive),> 100 µM (inactive),> 100 µM (inactive),28.2 µM (inactive),> 100 µM (inactive),29.3 µM (inactive),78.2 µM (inactive),> 100 µM (inactive),32.9 µM (inactive),97.7 µM (inactive),,71.3 µM (inactive),35.1 µM (inactive)
O=C1/C(=C/c2ccccc2)CN(C(=O)Oc2ccccc2)C/C1=C\c1ccccc1,,> 100 µM (inactive),6.44 µM (inactive),,11.2 µM (inactive),,33 µM (inactive),> 100 µM (inactive),> 100 µM (inactive),99.5 µM (inactive),52.1 µM (inactive),5.36 µM (inactive),,96.2 µM (inactive),,,> 100 µM (inactive)
CC12C(=O)N(CCN)C(=O)C1C1c3ccccc3C2c2ccccc21 (stereo unspecified),,> 100 µM (inactive),> 100 µM (inactive),,> 100 µM (inactive),> 100 µM (inactive),> 100 µM (inactive),> 100 µM (inactive),> 100 µM (inactive),> 100 µM (inactive),> 100 µM (inactive),> 100 µM (inactive),28.9 µM (inactive),> 100 µM (inactive),,> 100 µM (inactive),> 100 µM (inactive)
COC1C2c3cc4c(cc3CC(C#N)(c3ccccc32)N1C(=O)c1ccccc1)OCO4 (stereo unspecified),,> 100 µM (inactive),> 100 µM (inactive),,> 100 µM (inactive),> 100 µM (inactive),> 100 µM (inactive),> 100 µM (inactive),> 100 µM (inactive),> 100 µM (inactive),> 100 µM (inactive),> 100 µM (inactive),> 100 µM (inactive),,,,33 µM (inactive)
Cn1c2ccccc2n2c(=O)c3c(c(C#N)c12)CCCC3,,> 100 µM (inactive),,,> 100 µM (inactive),> 100 µM (inactive),> 100 µM (inactive),> 100 µM (inactive),> 100 µM (inactive),> 100 µM (inactive),> 100 µM (inactive),> 100 µM (inactive),,> 100 µM (inactive),,> 100 µM (inactive),> 100 µM (inactive)
CCOC(=O)C(C)(C)Oc1ccc2c(-c3ccc(Cl)cc3)cc(=O)oc2c1,,,> 100 µM (inactive),,> 100 µM (inactive),> 100 µM (inactive),> 100 µM (inactive),> 100 µM (inactive),> 100 µM (inactive),> 100 µM (inactive),> 100 µM (inactive),> 100 µM (inactive),,> 100 µM (inactive),,,74.8 µM (inactive)
Nc1ccc(Nc2nc(F)nc(-c3c4ccccc4c4n3CCS4)n2)cc1,,10.9 µM (inactive),6.56 µM (inactive),,15.7 µM (inactive),22 µM (inactive),16.2 µM (inactive),> 10 µM (inactive),14.5 µM (inactive),19.3 µM (inactive),,13.4 µM (inactive),6.18 µM (inactive),15 µM (inactive),,11 µM (inactive),13.1 µM (inactive)
Cc1cc(Cl)ccc1NC1=NC(=O)C(CC(=O)Nc2ccc([N+](=O)[O-])cc2[N+](=O)[O-])S1 (stereo unspecified),,35.1 µM (inactive),23.4 µM (inactive),,22.9 µM (inactive),39.6 µM (inactive),20.9 µM (inactive),28.4 µM (inactive),26.1 µM (inactive),23.6 µM (inactive),29.1 µM (inactive),24.3 µM (inactive),,19.2 µM (inactive),,26.3 µM (inactive),15.6 µM (inactive)
CCC(C)CC(C)CC(C)/C=C(\C)C1=C(C)CC(C)(O)O1 (stereo unspecified),,,52.6 µM (inactive),,,> 100 µM (inactive),76.4 µM (inactive),79.1 µM (inactive),,,65.6 µM (inactive),> 100 µM (inactive),18.3 µM (inactive),,,79.8 µM (inactive),92.5 µM (inactive)
C[C@@H]1C2=CC[C@@]3(C)C(CCC3[C@H](C)[C@H]3C[C@@]4(C)O[C@@](c5cccnc5)(O3)OC4(C)C)[C@@H]2C2OC2[C@@]12CCC(=O)O2 (stereo partly specified),,38.8 µM (inactive),31 µM (inactive),,31.2 µM (inactive),37 µM (inactive),34.2 µM (inactive),44 µM (inactive),37.4 µM (inactive),24.1 µM (inactive),32 µM (inactive),52.2 µM (inactive),26.8 µM (inactive),,,27.6 µM (inactive),33 µM (inactive)
COC(=O)[C@@]12OC[C@]34C([C@@H](O)C1O)[C@@]1(C)CC(=O)C(O)=C(C)C1C[C@H]3OC(=O)[C@H](OC(=O)/C=C(/c1ccccc1)C(F)(F)F)[C@H]42 (stereo partly specified),,5.74 µM (inactive),3.88 µM (inactive),,4.18 µM (inactive),1.75 µM (inactive),1.48 µM (inactive),7.03 µM (inactive),1.16 µM (inactive),,1.03 µM (active),1 µM (active),2.15 µM (inactive),6.31 µM (inactive),,7.59 µM (inactive),3.28 µM (inactive)
CCC1(O)C(=O)OCc2c1cc1n(c2=O)Cc2cc3ccc(CO)cc3nc2-1 (stereo unspecified),,9.35 µM (inactive),0.186 µM (active),,3.18 µM (inactive),8.26 µM (inactive),2.07 µM (inactive),12.2 µM (inactive),4.53 µM (inactive),4.55 µM (inactive),1.09 µM (active),1.42 µM (inactive),16.3 µM (inactive),23.8 µM (inactive),,2.97 µM (inactive),3.08 µM (inactive)
